Source: patent US10022374B2, “Certain protein kinase inhibitors” (Shanghai Fochon Pharmaceutical Co., Ltd., priority 2013, dated 2018)
Where two headings read alike, the source gives them in different places.

Assays:
HT-29 cells = assay: Inhibition of cell proliferation (MTS), HT-29 cells; assay type: cell-based
Protocol: (§1) MTS testing kit was purchased from Promega. The DMEM, RPMI-1640 and Fetal bovine serum were purchased from Gibco. Dimethyl sulfoxide (DMSO) was purchased from Sigma.
(§2) To investigate whether a compound is able to inhibit the activity of MEK in cells, a mechanism-based assay using A-375 and HT-29 cell was developed. In this assay, inhibition of MEK was detected by the inhibition of A-375 and HT-29 cells proliferation. A-375 and HT-29 cells were cultured in culture flasks to 40-80% confluence respectively in DMEM and RPMI-1640 plus 10% fetal bovine serum. Cells were collected and plated onto 96-well plates at desired cell density (A-375: 3000 cells/well; HT-29: 5000 cells/well). Plates were incubated overnight at 37° C., with 5% CO2 to adhere. Compounds were added to the plates. The final compound concentrations were […], 12.35, 4.12, 1.37, 0.46 and 0.15 nM, respectively. Place plates at 37° C., with 5% CO2 for 72 h. 10 μl MTS were added to each well and incubate the plates for exactly 2 hours. Absorbance was measured at 490 nm. […] was calculated using GraphPad Prism 5.0.

A-375 cells = assay: Inhibition of cell proliferation (MTS), A-375 cells; assay type: cell-based
Protocol: as §1, §2

[1] = Homo sapiens, HT-29, 72 h, HT-29 cells, 5000 cells/well, 72 h, MTS, absorbance 490 nm, read-out: HT29 IC50
[2] = Homo sapiens, A-375, 72 h, A-375 cells, 3000 cells/well, 72 h, MTS, absorbance 490 nm, read-out: A375 IC50
[3] = Homo sapiens, HT-29, 72 h, read-out: HT29 IC50 (nM)
[4] = Homo sapiens, A-375, 72 h, read-out: A375 IC50 (nM)

Row | SMILES | IC50 (HT-29 cells; [1]) [nM] | IC50 (A-375 cells; [2]) [nM] | also measured
1 | C=CCn1nc(-c2cccc(NS(=O)(=O)C3CC3)c2)c2c(c(Nc3ccc(I)cc3F)c(F)c(=O)n2C)c1=O [Example 34, N-(3-(6-allyl-3-fluoro-4-(2-fluoro-4-iodophenylamino)-1-methyl-2,5-dioxo-1,2,5,6-tetrahydropyrido[2,3-d]pyridazin-8-yl)phenyl)cyclopropanesulfonamide] | – | – | IC50 (HT-29 cells; HT-29 cells, 5000 cells/well, 72 h, MTS, absorbance 490 nm, read-out: HT29 IC50): 4.6 nM; IC50 (A-375 cells; A-375 cells, 3000 cells/well, 72 h, MTS, absorbance 490 nm, read-out: A375 IC50): 4.2 nM
2 | C=CCn1nc(-c2cccc(NS(=O)(=O)CC)c2)c2c(c(Nc3ccc(I)cc3F)c(F)c(=O)n2C)c1=O [Example 32, N-(3-(6-allyl-3-fluoro-4-(2-fluoro-4-iodophenylamino)-1-methyl-2,5-dioxo-1,2,5,6-tetrahydropyrido[2,3-d]pyridazin-8-yl)phenyl)ethanesulfonamide] | 12.7 | 36.2 | –
3 | Cn1c(=O)c(F)c(Nc2ccc(I)cc2F)c2c(=O)n(CC(O)CO)nc(-c3cccc(NS(C)(=O)=O)c3)c21 (stereo not drawn) [Example 43, N-(3-(6-(2,3-dihydroxypropyl)-3-fluoro-4-(2-fluoro-4-iodophenylamino)-1-methyl-2,5-dioxo-1,2,5,6-tetrahydropyrido[2,3-d]pyridazin-8-yl)phenyl)methanesulfonamide] | 4.6 | 3.6 | –
4 | CN(c1cccc(-c2nn(C3CC3)c(=O)c3c(Nc4ccc(I)cc4F)c(F)c(=O)n(C)c23)c1)S(=O)(=O)C1CC1 [Example 49, N-(3-(6-cyclopropyl-3-fluoro-4-((2-fluoro-4-iodophenyl)amino)-1-methyl-2,5-dioxo-1,2,5,6-tetrahydropyrido[2,3-d]pyridazin-8-yl)phenyl)-N-methylcyclopropanesulfonamide] | 11.7 | 2.5 | –
5 | Cn1c(=O)c(F)c(Nc2ccc(I)cc2F)c2c(=O)n(C3CC3)nc(-c3cccc(NC(=O)C4CC4)c3)c21 [Example 4, N-(3-(6-cyclopropyl-3-fluoro-4-(2-fluoro-4-iodophenylamino)-1-methyl-2,5-dioxo-1,2,5,6-tetrahydropyrido[2,3-d]pyridazin-8-yl)phenyl)cyclopropanecarboxamide] | 41.9 | 26.6 | –
6 | C=CCn1nc(-c2cccc(NS(C)(=O)=O)c2)c2c(c(Nc3ccc(Br)cc3F)c(F)c(=O)n2C)c1=O [Example 37, N-(3-(6-allyl-4-(4-bromo-2-fluorophenylamino)-3-fluoro-1-methyl-2,5-dioxo-1,2,5,6-tetrahydropyrido[2,3-d]pyridazin-8-yl)phenyl)methanesulfonamide] | 42.7 | 32.4 | –
7 | CC(C)S(=O)(=O)N(C)c1cccc(-c2nn(C)c(=O)c3c(Nc4ccc(I)cc4F)c(F)c(=O)n(C)c23)c1 [Example 51, N-(3-(3-fluoro-4-((2-fluoro-4-iodophenyl)amino)-1,6-dimethyl-2,5-dioxo-1,2,5,6-tetrahydropyrido[2,3-d]pyridazin-8-yl)phenyl)-N-methylpropane-2-sulfonamide] | – | – | IC50 (HT-29 cells; [3]): 2 nM; IC50 (A-375 cells; [4]): 2.2 nM
8 | C=CCn1nc(-c2cccc(NS(C)(=O)=O)c2)c2c(c(Nc3ccc(I)cc3F)c(F)c(=O)n2C)c1=O [Example 31, N-(3-(6-allyl-3-fluoro-4-(2-fluoro-4-iodophenylamino)-1-methyl-2,5-dioxo-1,2,5,6-tetrahydropyrido[2,3-d]pyridazin-8-yl)phenyl)methanesulfonamide] | 7.4 | 1.1 | –
9 | CC(=O)Nc1cccc(-c2nn(CC(O)CO)c(=O)c3c(Nc4ccc(I)cc4F)c(Cl)c(=O)n(C)c23)c1 (stereo not drawn) [Example 39, N-(3-(3-chloro-6-(2,3-dihydroxypropyl)-4-((2-fluoro-4-iodophenyl)amino)-1-methyl-2,5-dioxo-1,2,5,6-tetrahydropyrido[2,3-d]pyridazin-8-yl)phenyl)acetamide] | – | 22.8 | –
10 | CC(C)n1nc(-c2cccc(NS(C)(=O)=O)c2)c2c(c(Nc3ccc(I)cc3F)c(F)c(=O)n2C)c1=O [Example 13, N-(3-(3-fluoro-4-(2-fluoro-4-iodophenylamino)-6-isopropyl-1-methyl-2,5-dioxo-1,2,5,6-tetrahydropyrido[2,3-d]pyridazin-8-yl)phenyl)methanesulfonamide] | 87.4 | 26.2 | –
11 | CC(C)S(=O)(=O)Nc1cccc(-c2nn(CC(O)CO)c(=O)c3c(Nc4ccc(I)cc4F)c(F)c(=O)n(C)c23)c1 (stereo not drawn) [Example 45, N-(3-(6-(2,3-dihydroxypropyl)-3-fluoro-4-(2-fluoro-4-iodophenylamino)-1-methyl-2,5-dioxo-1,2,5,6-tetrahydropyrido[2,3-d]pyridazin-8-yl)phenyl)propane-2-sulfonamide] | 23.5 | 9.8 | –
12 | CC(=O)Nc1cccc(-c2nn(C(C)C)c(=O)c3c(Nc4ccc(I)cc4F)c(F)c(=O)n(C)c23)c1 [Example 9, N-(3-(3-fluoro-4-(2-fluoro-4-iodophenylamino)-6-isopropyl-1-methyl-2,5-dioxo-1,2,5,6-tetrahydropyrido[2,3-d]pyridazin-8-yl)phenyl)acetamide] | 47.3 | 44 | –
13 | Cn1nc(-c2cccc(NS(C)(=O)=O)c2)c2c(c(Nc3ccc(I)cc3F)c(F)c(=O)n2C)c1=O [Example 22, N-(3-(3-fluoro-4-(2-fluoro-4-iodophenylamino)-1,6-dimethyl-2,5-dioxo-1,2,5,6-tetrahydropyrido[2,3-d]pyridazin-8-yl)phenyl)methanesulfonamide] | < 1 | < 1 | –
14 | CC(=O)Nc1cccc(-c2nn(C3CC3)c(=O)c3c(Nc4ccc(I)cc4F)c(F)c(=O)n(C)c23)c1 [Example 1, N-(3-(6-cyclopropyl-3-fluoro-4-(2-fluoro-4-iodophenylamino)-1-methyl-2,5-dioxo-1,2,5,6-tetrahydropyrido[2,3-d]pyridazin-8-yl)phenyl)acetamide] | – | – | IC50 (HT-29 cells; [3]): 2.4 nM; IC50 (A-375 cells; [4]): 1.2 nM
15 | Cn1c(=O)c(F)c(Nc2ccc(I)cc2F)c2c(=O)n(CC(F)F)nc(-c3cccc(NS(=O)(=O)C4CC4)c3)c21 [Example 20, N-(3-(6-(2,2-difluoroethyl)-3-fluoro-4-(2-fluoro-4-iodophenylamino)-1-methyl-2,5-dioxo-1,2,5,6-tetrahydropyrido[2,3-d]pyridazin-8-yl)phenyl)cyclopropanesulfonamide] | 7.7 | 6.4 | –
16 | Cn1c(=O)c(F)c(Nc2ccc(I)cc2F)c2c(=O)n(C3CC3)nc(-c3cccc(NS(C)(=O)=O)c3)c21 [Example 5, N-(3-(6-cyclopropyl-3-fluoro-4-(2-fluoro-4-iodophenylamino)-1-methyl-2,5-dioxo-1,2,5,6-tetrahydropyrido[2,3-d]pyridazin-8-yl)phenyl)methanesulfonamide] | 5.1 | 4 | –
17 | Cc1ccc(Nc2c(C)c(=O)n(C)c3c(C)n[nH]c(=O)c23)c(F)c1 [Reference Compound, 4-((2-fluoro-4-methylphenyl)amino)-1,3,8-trimethylpyrido[2,3-d]pyridazine-2,5(1H,6H)-dione, reference compound] | > 1000 | > 1000 | –
18 | C=CCn1nc(-c2cccc(NC(=O)CC)c2)c2c(c(Nc3ccc(I)cc3F)c(F)c(=O)n2C)c1=O [Example 29, N-(3-(6-allyl-3-fluoro-4-(2-fluoro-4-iodophenylamino)-1-methyl-2,5-dioxo-1,2,5,6-tetrahydropyrido[2,3-d]pyridazin-8-yl)phenyl)propionamide] | 106 | 51.2 | –
19 | CC(=O)Nc1cccc(-c2nn(CC(O)CO)c(=O)c3c(Nc4ccc(I)cc4F)c(F)c(=O)n(C)c23)c1 (stereo not drawn) [Example 40, N-(3-(6-(2,3-dihydroxypropyl)-3-fluoro-4-(2-fluoro-4-iodophenylamino)-1-methyl-2,5-dioxo-1,2,5,6-tetrahydropyrido[2,3-d]pyridazin-8-yl)phenyl)acetamide] | 1.9 | 2.5 | –
20 | CC(C)S(=O)(=O)N(C)c1cccc(-c2nn(C3CC3)c(=O)c3c(Nc4ccc(I)cc4F)c(F)c(=O)n(C)c23)c1 [Example 48, N-(3-(6-cyclopropyl-3-fluoro-4-((2-fluoro-4-iodophenyl)amino)-1-methyl-2,5-dioxo-1,2,5,6-tetrahydropyrido[2,3-d]pyridazin-8-yl)phenyl)-N-methylpropane-2-sulfonamide] | 13.2 | 3.4 | –
21 | CN(c1cccc(-c2nn(C3CC3)c(=O)c3c(Nc4ccc(I)cc4F)c(F)c(=O)n(C)c23)c1)S(C)(=O)=O [Example 47, N-(3-(6-cyclopropyl-3-fluoro-4-((2-fluoro-4-iodophenyl)amino)-1-methyl-2,5-dioxo-1,2,5,6-tetrahydropyrido[2,3-d]pyridazin-8-yl)phenyl)-N-methylmethanesulfonamide] | 16.6 | 4.9 | –
22 | C=CCn1nc(-c2cccc(NC(C)=O)c2)c2c(c(Nc3ccc(I)cc3F)c(Cl)c(=O)n2C)c1=O [Example 38, N-(3-(6-allyl-3-chloro-4-(2-fluoro-4-iodophenylamino)-1-methyl-2,5-dioxo-1,2,5,6-tetrahydropyrido[2,3-d]pyridazin-8-yl)phenyl)acetamide] | – | 20.8 | –
